Molecular target: T1, SthK-Cterm (Winmispira thermophila, UniProt E0RR11)
T1 construct: gene STHERM_c06300; C-linker/CNBD, residues 226-430 of full length; synthetic gene, His6-MBP fusion cut with thrombin; E. coli BL21(DE3); tetramer (SEC-MALLS); model residues 226-423
Assay: X-ray crystal structure
Settings: antagonist; 5 mM cGMP added; bistrispropane pH 7.5, 20 °C; 2.55 Å; cyclic nucleotide-binding site

T1 sequence (E0RR11 entry or part of it): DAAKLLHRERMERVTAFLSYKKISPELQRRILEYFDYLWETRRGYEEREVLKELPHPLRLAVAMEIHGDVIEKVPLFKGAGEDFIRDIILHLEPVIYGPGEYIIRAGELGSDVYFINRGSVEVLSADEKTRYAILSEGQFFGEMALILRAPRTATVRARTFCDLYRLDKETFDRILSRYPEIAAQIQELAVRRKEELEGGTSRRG

Question: How did the X-ray crystal structure turn out when Nc1nc2c(ncn2[C@@H]2O[C@@H]3COP(=O)(O)O[C@H]3[C@H]2O)c(=O)[nH]1 [cGMP] was run?
Answer: we observe that cGMP is able to bind in the cyclic nucleotide binding cavity from SthK

— PMC4308110 (PLoS ONE, 2015)
